Measured values as given in US9980943B2, “Methods of treating muscular dystrophy” (BOARD OF REGENTS OF THE NEVADA SYSTEM OF HIGHER EDUCATION, …, priority 2013, dated 2018).
Read-outs that look alike come from different tables or passages of the source.

Tested on: α7 integrin (LacZ reporter in α7LacZ+/− myoblasts)
Assay: qHTS of the LOPAC library and MLSMR (online screen, α7LacZ+/− myoblasts)
Settings: Mus musculus, Myoblast; for activation at 0.307 µM: read-out: Activity at 0.307 uM [%] **; for activation at 1.53 µM: read-out: Activity at 1.530 uM [%] **; for activation at 7.66 µM: read-out: Activity at 7.660 uM [%] **; for activation at 38.3 µM: read-out: Activity at 38.30uM [%] **; for EC50: read-out: Fit LogAC50 (converted)
[1] = 48 h, read-out: Fit Infinite Activity [%]

Description: A total of 250 α7LacZ^+/− myoblasts at passage 13 were dispensed using a multidrop (Thermo) into black low base tissue culture treated microclear aurora plates in 6 μl media containing DMEM without phenol, 5% FBS, 1× GluMax and 1× Penicillin/Streptomycin. […] Compounds were then dispensed using a Kalypsys pintool to deliver 23 nl/well compounds in DMSO (diluted into 6 μl resulting in a 1:260 dilution of compound). […] After incubation with compound, 5 μl of the media was aspirated using the Kalypsys washer/dispenser and 3 μl of the Mammalian Protein Extraction Reagent (MPER) lysis buffer (Thermo Fisher) was added. […] The plates were then incubated for 10 minutes at room temperature.
The assay was adapted for a high-throughput screen with the fully automated Kalypsys robotic system using 1536 well plates at NCGC.

| SMILES | activation at 0.307 µM (48 h) [%] | activation at 1.53 µM (48 h) [%] | activation at 7.66 µM (48 h) [%] | activation at 38.3 µM (48 h) [%] | Emax [1] [%] | EC50 [µM] | Emax (read-out: Max Response [%]) [%] |
| --- | --- | --- | --- | --- | --- | --- | --- |
| COc1ccc(CN2CCNC(=O)C2CC(=O)NCCc2c[nH]c3ccccc23)c(OC)c1 (stereo not shown) [Compound 208] | -7.84 | -10.8 | 16.4 | 73.4 | 74.6 | 10 | 73.4 |
| O=Cc1cn(Cc2ccc(F)cc2Cl)c2ccccc12 [Compound 209] | 13 | 10.6 | 18.6 | 139 | 142 | – | 139 |
| Cc1ccc(-c2nc(C)sc2CC(=O)OCC(=O)Nc2c(F)cccc2F)cc1 [Compound 210] | 13.8 | 9.43 | 20.3 | 113 | 113 | – | 113 |
| CNC(=O)/C(=C\c1cccc(Oc2ccccc2)c1)NC(=O)c1ccccc1 [Compound 211] | 0.23 | 11.6 | 43 | 87.9 | 110 | – | 87.9 |
| O=S(=O)(NCC(c1ccco1)N1CCOCC1)c1ccc(Cl)cc1 (stereo not shown) [Compound 212] | 11.1 | 7.37 | 15.9 | 128 | 129 | – | 128 |
| C=CCc1c(C)nc(-c2ccccc2)nc1N/N=C/c1ccccc1 [Compound 213] | 0 | 6.49 | 41.1 | 90.1 | 109 | – | 90.1 |
| CCc1ccc(Sc2cc(C(=O)NCCN3CCOCC3)c3ccccc3n2)cc1 [Compound 214] | 13.2 | 16.1 | 43.9 | 101 | 108 | – | 101 |
| O=C(Nc1ccc(Oc2cccnc2)cc1)c1ccccc1Cl [Compound 215] | 14.2 | 15.2 | 40.8 | 83.3 | 87.4 | 10 | 83.3 |
| O=C(CNC(=O)c1cccc(F)c1)N/N=C/c1cc(Br)ccc1OCc1ccccc1 [Compound 216] | 8.28 | 20.8 | 44 | 71.7 | 94.4 | 10 | 71.7 |
| COc1ccc(CCNC(=O)c2cc(-c3cc(C)ccc3O)n[nH]2)cc1OC [Compound 217] | 10.4 | 9.29 | 27.5 | 65.2 | 66.2 | 10 | 65.2 |
